Tests used:
Format in all cases: functional
Cavia porcellus [1] = organism: Cavia porcellus; test: Dose required to produce 50% increase in developed tension of inotropic effect in guinea pig atria.
Cavia porcellus [2] = organism: Cavia porcellus; test: Dose required to produce negative inotropic (NI) effect in Guinea pig atria.
Cavia porcellus [3] = organism: Cavia porcellus; test: Dose required to produce 75% increase in developed tension of inotropic effect in guinea pig atria.
Cavia porcellus [4] = organism: Cavia porcellus; test: Dose required to produce arrhythmia (A) on Guinea pig atria.
Cavia porcellus [5] = organism: Cavia porcellus; test: Dose required to produce negative inotropic (NI) or arrhythmia (A) effect in Guinea pig atria.
Cavia porcellus [6] = organism: Cavia porcellus; test: Dose required to produce negative inotropic (NI) effect in Guinea pig atria; MI is Minimal Activity
Cavia porcellus [7] = organism: Cavia porcellus; test: Dose required to produce 75% increase in developed tension of inotropic effect in guinea pig atria; MI is Minimal Activity

Row | Structure (SMILES) | Dose (Cavia porcellus [1]) | Dose (Cavia porcellus [2]) | Dose (Cavia porcellus [3]) | Dose (Cavia porcellus [4]) | Dose (Cavia porcellus [5]) | Dose (Cavia porcellus [6]) | Dose (Cavia porcellus [7])
1 | C[C@H]1O[C@@H](O[C@H]2[C@@H](O)C[C@H](O[C@H]3[C@@H](O)C[C@H](O[C@H]4CC[C@@]5(C)[C@H](CC[C@@H]6[C@@H]5C[C@@H](O)[C@]5(C)[C@@H](C7=CC(=O)OC7)CC[C@]65O)C4)O[C@@H]3C)O[C@@H]2C)C[C@H](O)[C@@H]1O [DIGOXIN] | 0.42 µM | 2.5 µM | 0.82 µM | – | – | – | –
2 | C[C@]12CCC(O[C@@H]3O[C@H]4[C@H](NC[C@H]4O)[C@H]3O)CC1CC[C@@H]1[C@@H]2CC[C@]2(C)[C@@H](C3=CC(=O)OC3)CC[C@@]12O (stereo not given in full) | 0.5 µM | 2 µM | 0.86 µM | 1.5 µM | – | – | –
3 | CC(=O)O[C@H]1[C@H](OC2CC[C@@]3(C)C(CC[C@@H]4[C@@H]3CC[C@]3(C)[C@@H](C5=CC(=O)OC5)CC[C@@]43O)C2)O[C@H]2[C@@H]1OC[C@H]2OC(C)=O (stereo not given in full) | 0.39 µM | – | 0.53 µM | – | 1 µM | – | –
4 | C[C@]12CC[C@H](O[C@@H]3O[C@H](CO)[C@@H](O)[C@H]3O)C[C@@H]1CC[C@@H]1[C@@H]2CC[C@]2(C)[C@@H](C3=CC(=O)OC3)CC[C@@]12O | 0.36 µM | 2.5 µM | 0.64 µM | – | – | – | –
5 | CC(=O)OC[C@H]1O[C@@H](OC2CC[C@@]3(C)C(CC[C@@H]4[C@@H]3CC[C@]3(C)[C@@H](C5=CC(=O)OC5)CC[C@@]43O)C2)[C@H](OC(C)=O)[C@@H]1OC(C)=O (stereo not given in full) | 1.9 µM | – | 3 µM | – | – | Minimal activity | –
6 | CC(=O)O[C@H]1[C@H](OC2CC[C@@]3(C)C(CC[C@@H]4[C@@H]3CC[C@]3(C)[C@@H](C5=CC(=O)OC5)CC[C@@]43O)C2)O[C@H]2[C@@H]1N(C(=O)C(F)(F)F)C[C@H]2OC(C)=O (stereo not given in full) | 0.54 µM | 1 µM | 0.65 µM | 0.75 µM | – | – | –
7 | C[C@]12CCC(O[C@@H]3O[C@H]4[C@H](OC[C@H]4O)[C@H]3O)CC1CC[C@@H]1[C@@H]2CC[C@]2(C)[C@@H](C3=CC(=O)OC3)CC[C@@]12O (stereo not given in full) | 10 µM | – | – | – | – | Minimal activity | Minimal activity
8 | C[C@]12CC[C@H](O[C@@H]3O[C@H](CN)[C@@H](O)[C@H]3O)C[C@@H]1CC[C@@H]1[C@@H]2CC[C@]2(C)[C@@H](C3=CC(=O)OC3)CC[C@@]12O | 0.26 µM | – | 0.35 µM | – | 5 µM | – | –
9 | CC(=O)O[C@H]1[C@H](OC2CC[C@@]3(C)C(CCC4[C@@H]3CC[C@]3(C)[C@@H](C5=CC(=O)OC5)CC[C@@]43O)C2)O[C@H](CN=[N+]=[N-])[C@H]1OC(C)=O (stereo not given in full) | 0.3 µM | 2.5 µM | 0.44 µM | – | – | – | –
10 | C[C@]12CC[C@H](O)C[C@H]1CC[C@@H]1[C@@H]2CC[C@]2(C)[C@@H](C3=CC(=O)OC3)CC[C@]12O [DIGITOXIGENIN] | 0.38 µM | 2.5 µM | 0.64 µM | – | – | – | –
11 | C[C@]12CC[C@H](O[C@@H]3O[C@H](CN=[N+]=[N-])[C@@H](O)[C@H]3O)C[C@@H]1CC[C@@H]1[C@@H]2CC[C@]2(C)[C@@H](C3=CC(=O)OC3)CC[C@@]12O | 0.25 µM | – | 0.43 µM | – | 1 µM | – | –

— ChEMBL document CHEMBL1123520, “Digitoxigenin 3-O-beta-D-furanosides” (1986)
